Target: T1, fibrin matrix (Homo sapiens, UniProt P02671+P02675+P02679)
T1 construct: 15 mg of human plasma fibrinogen (Sigma-Aldrich Catalog); purchased Sigma-Aldrich; host or cells: human plasma
T1 sequence (P02671 20-644 isoform P02671-2 limits assumed): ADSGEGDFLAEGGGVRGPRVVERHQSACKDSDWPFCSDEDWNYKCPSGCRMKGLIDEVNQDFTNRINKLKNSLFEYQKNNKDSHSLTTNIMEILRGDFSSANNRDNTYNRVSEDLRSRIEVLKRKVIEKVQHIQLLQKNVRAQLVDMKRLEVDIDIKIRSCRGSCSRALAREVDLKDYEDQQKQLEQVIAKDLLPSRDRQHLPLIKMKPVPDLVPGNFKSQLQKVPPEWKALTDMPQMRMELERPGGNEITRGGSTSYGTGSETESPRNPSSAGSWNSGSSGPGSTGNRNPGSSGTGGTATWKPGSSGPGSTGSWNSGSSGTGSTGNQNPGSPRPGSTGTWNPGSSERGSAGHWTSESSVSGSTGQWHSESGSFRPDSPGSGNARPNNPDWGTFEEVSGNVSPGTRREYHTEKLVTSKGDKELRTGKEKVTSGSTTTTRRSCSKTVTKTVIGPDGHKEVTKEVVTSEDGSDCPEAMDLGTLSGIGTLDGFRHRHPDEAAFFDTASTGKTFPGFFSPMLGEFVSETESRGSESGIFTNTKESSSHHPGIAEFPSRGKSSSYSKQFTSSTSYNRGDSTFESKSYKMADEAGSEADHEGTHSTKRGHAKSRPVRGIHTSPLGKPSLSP
T1 sequence (P02675 45-491 limits assumed): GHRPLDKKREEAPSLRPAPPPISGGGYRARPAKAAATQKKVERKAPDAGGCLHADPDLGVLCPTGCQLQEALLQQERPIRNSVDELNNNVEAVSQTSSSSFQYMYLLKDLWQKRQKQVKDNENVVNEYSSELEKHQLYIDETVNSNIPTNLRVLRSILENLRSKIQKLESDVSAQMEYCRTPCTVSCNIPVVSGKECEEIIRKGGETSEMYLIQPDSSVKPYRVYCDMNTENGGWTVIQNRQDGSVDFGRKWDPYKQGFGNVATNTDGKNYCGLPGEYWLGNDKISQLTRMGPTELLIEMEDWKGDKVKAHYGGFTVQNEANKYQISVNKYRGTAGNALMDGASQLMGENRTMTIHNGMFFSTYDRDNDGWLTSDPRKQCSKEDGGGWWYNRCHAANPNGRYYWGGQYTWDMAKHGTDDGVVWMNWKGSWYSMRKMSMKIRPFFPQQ
T1 sequence (P02679 27-437 isoform P02679-2 limits assumed): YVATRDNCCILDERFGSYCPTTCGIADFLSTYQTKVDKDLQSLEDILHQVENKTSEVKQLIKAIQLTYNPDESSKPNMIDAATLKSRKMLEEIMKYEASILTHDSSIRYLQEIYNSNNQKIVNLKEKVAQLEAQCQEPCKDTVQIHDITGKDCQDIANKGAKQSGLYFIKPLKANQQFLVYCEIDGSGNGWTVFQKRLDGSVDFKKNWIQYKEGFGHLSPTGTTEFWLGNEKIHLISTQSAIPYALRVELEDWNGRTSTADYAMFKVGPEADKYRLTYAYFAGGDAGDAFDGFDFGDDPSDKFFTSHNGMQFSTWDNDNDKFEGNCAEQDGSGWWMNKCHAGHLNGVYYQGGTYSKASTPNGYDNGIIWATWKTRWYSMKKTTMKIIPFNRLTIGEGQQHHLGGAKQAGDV
Experiment: Degradation of fibrin matrix prepared in vitro (visual observation and PDF determination)
Assay type: biochemical
Details: solution at 10 g/l, 48 hours
Procedure: The fibrin matrices were prepared according to Brown's protocol described in the work “Fibroblast migration in fibrin gel matrices” Am J. Pathol, 1993, 142: 273-283.
The following were dissolved at 37° C.: • 5 ml of an aqueous solution comprising 50 millimoles of Hepes (Sigma-Aldrich Catalog) • 15 mg of human plasma fibrinogen (Sigma-Aldrich Catalog) • 5 millimoles of CaCl2.
50 μl of thrombin, 100 NIH of human plasma (Sigma-Aldrich Catalog) were added to the solution thus prepared.
The reaction mixture was mixed, put in a 15-ml tube (or a Petri dish of 60 mm diameter) and then left to incubate at 37° C.
During the first 24 hours of incubation at 37° C., a fibrin matrix which has roughly the appearance of a gel was seen to appear.
In parallel, a control solution was prepared free from the test compound with phosphate-buffered saline (PBS).
The degradation of the fibrin matrix was monitored visually over the next 24 and 48 hours. […]
In order to quantify and verify that the observations made do indeed correspond to degradation of the fibrin matrix, the products of degradation of fibrin (PDFs) were determined 24 hours or 48 hours after adding the solutions of the test compound. […]
This solution was tested according to the protocol described above and the PDFs were measured 48 hours after adding the solution to the fibrin matrix. […]

How did the “degradation of the fibrin matrix (level)” value turn out when `O=S(=O)([O-])OC[C@H]1O[C@@](COS(=O)(=O)[O-])(O[C@H]2O[C@H](COS(=O)(=O)[O-])[C@@H](OS(=O)(=O)[O-])[C@H](OS(=O)(=O)[O-])[C@H]2OS(=O)(=O)[O-])[C@@H](OS(=O)(=O)[O-])[C@@H]1OS(=O)(=O)[O-].[K+].[K+].[K+].[K+].[K+].[K+].[K+].[K+]` [potassium salt of sucrose octasulfate] was run?
Its value is “partial degradation (if the value of the PDFs, expressed in μg/ml, is between 5 and 20, there is partial degradation of the fibrin matrix)”.
